≈ marks a conversion by molar mass, not a printed value. Read-outs that look alike come from different tables or passages of the source.
Assays:
[1] = test system: carbapenem sensitive Escherichia coli; test: MIC by broth micro-dilution (CLSI), carbapenem sensitive E. coli; assay type: cell-based
[2] = test system: methicillin-sensitive Staphylococcus aureus; test: MIC by broth micro-dilution (CLSI), methicillin-sensitive S. aureus; assay type: cell-based; details: MSSA S. aureus ATCC29213
[3] = test system: carbapenemase producing K. pneumoniae; test: MIC by broth micro-dilution (CLSI), carbapenemase producing K. pneumoniae; assay type: cell-based, Klebsiella pneumoniae
[4] = test system: carbapenem sensitive Pseudomonas aeruginosa; test: MIC by broth micro-dilution (CLSI), carbapenem sensitive P. aeruginosa; assay type: cell-based
[5] = Escherichia coli, ATCC25922, ESBL −ve E. coli ATCC25922, read-out: MIC
[6] = Staphylococcus aureus, ATCC 29213 / MSSA, read-out: MIC
[7] = Klebsiella pneumoniae, ATCCBAA1705, KPC-2 K. pneumoniae ATCC BAA-1705, read-out: MIC
[8] = Pseudomonas aeruginosa, ATCC27853, Meropenem susceptible P. aeruginosa ATCC27853, read-out: MIC

Structure (SMILES) | MIC [1, 5] | MIC [2, 6] | MIC [3, 7] | MIC [4, 8] | MIC ([1]; ESBL −ve E. coli ATCC25922) | MIC [2] | MIC ([3]; KPC-2 K. pneumoniae ATCC BAA-1705) | MIC ([4]; Meropenem susceptible P. aeruginosa ATCC27853)
C[C@@H](NC(=O)Cn1cnnn1)[C@H]1C(=O)N2C(C(=O)O)=C(SC3CN(C(=N)N)C3)[C@H](C)[C@H]12 [Example 515, (4R,5S,6R)-6-((R)-1-(2-(1H-tetrazol-1-yl)acetamido)ethyl)-3-(1-carbamimidoylazetidin-3-ylthio)-4-methyl-7-oxo-1-azabicyclo[3.2.0]hept-2-ene-2-carboxylic acid] | 0.25 µg/mL (≈ 0.556 µM) | 2 µg/mL (≈ 4.45 µM) | 1 µg/mL (≈ 2.22 µM) | 16 µg/mL (≈ 35.6 µM) |  |  |  | 
C[C@@H](NC(=O)Cn1cnnn1)[C@H]1C(=O)N2C(C(=O)O)=C(S[C@@H]3CN[C@H](C(=O)N4CCCNCC4)C3)[C@H](C)[C@H]12 [Example 516, (4R,5S,6R)-3-((3S,5S)-5-(1,4-diazepane-1-carbonyl)pyrrolidin-3-ylthio)-6-((R)-1-(2-(1H-tetrazol-1-yl)acetamido)ethyl)-4-methyl-7-oxo-1-azabicyclo[3.2.0]hept-2-ene-2-carboxylic acid] | 0.25 µg/mL (≈ 0.457 µM) | 2 µg/mL (≈ 3.65 µM) | 2 µg/mL (≈ 3.65 µM) | 2 µg/mL (≈ 3.65 µM) |  |  |  | 
C[C@@H](NC(=O)Cn1cnnn1)[C@H]1C(=O)N2C(C(=O)O)=C(S[C@@H]3CN[C@H](C(=O)N4CCCN(C(=N)N)CC4)C3)[C@H](C)[C@H]12 [Example 517, (4R,5S,6R)-6-((R)-1-(2-(1H-tetrazol-1-yl)acetamido)ethyl)-3-((3S,5S)-5-(4-carbamimidoyl-1,4-diazepane-1-carbonyl)pyrrolidin-3-ylthio)-4-methyl-7-oxo-1-azabocyclo[3.2.0]hept-2-ene-2-carboxylic acid] | 0.5 µg/mL (≈ 0.848 µM) | 4 µg/mL (≈ 6.78 µM) | 2 µg/mL (≈ 3.39 µM) | 4 µg/mL (≈ 6.78 µM) |  |  |  | 
COCCNCC(=O)N[C@H](C)[C@H]1C(=O)N2C(C(=O)O)=C(S[C@@H]3CN[C@H](C(=O)N(C)C)C3)[C@H](C)[C@H]12 [Example 518, (4R,5S,6R)-3-((3S,5S)-5-(dimethylcarbamoyl)pyrrolidin-3-ylthio)-6-((R)-1-(2-(2-methoxyethylamino)acetamido)ethyl)-4-methyl-7-oxo-1-azabicyclo[3.2.0]hept-2-ene-2-carboxylic acid] | 1 µg/mL (≈ 2.01 µM) | 8 µg/mL (≈ 16.1 µM) | 4 µg/mL (≈ 8.04 µM) | 128 µg/mL (≈ 257 µM) |  |  |  | 
CNC[C@@H]1CCCN1CC(=O)N[C@H](C)[C@H]1C(=O)N2C(C(=O)O)=C(S[C@@H]3CN[C@H](C(=O)N(C)C)C3)[C@H](C)[C@H]12 [Example 520, (4R,5S,6R)-3-((3S,5S)-5-(dimethylcarbamoyl)pyrrolidin-3-ylthio)-4-methyl-6-((R)-1-(2-((S)-2-((methylamino)methyl)pyrrolidin-1-yl)acetamido)ethyl)-7-oxo-1-azabicyclo[3.2.0]hept-2-ene-2-carboxylic acid] | 2 µg/mL (≈ 3.73 µM) | 16 µg/mL (≈ 29.8 µM) | 16 µg/mL (≈ 29.8 µM) | > 128 µg/mL |  |  |  | 
C[C@@H](NC(=O)Cn1cnnn1)[C@H]1C(=O)N2C(C(=O)O)=C(S[C@@H]3CN[C@H](C(=O)N4C[C@H]5CNC[C@@]5(CO)C4)C3)[C@H](C)[C@H]12 [Example 524, (4R,5S,6R)-6-((R)-1-(2-(1H-tetrazol-1-yl)acetamido)ethyl)-3-((3S,5S)-5-((3aR,6aR)-3a-(hydroxymethyl)octahydropyrrolo[3,4-c]pyrrole-2-carbonyl)pyrrolidin-3-ylthio)-4-methyl-7-oxo-1-azabicyclo[3.2.0]hept-2-ene-2-carboxylic acid] | 0.25 µg/mL (≈ 0.424 µM) | 4 µg/mL (≈ 6.78 µM) | 2 µg/mL (≈ 3.39 µM) | 1 µg/mL (≈ 1.7 µM) |  |  |  | 
C[C@@H](NC(=O)Cn1cnnn1)[C@H]1C(=O)N2C(C(=O)O)=C(S[C@@H]3CN[C@H](C(=O)N4CC5CNCC5C4)C3)[C@H](C)[C@H]12 (stereo partly drawn) [Example 540, (4R,5S,6R)-6-((R)-1-(2-(1H-tetrazol-1-yl)acetamido)ethyl)-4-methyl-3-((3S,5S)-5-(octahydropyrrolo-[3,4-c]pyrrole-2-carbonyl)pyrrolidin-3-ylthio)-7-oxo-1-azabicyclo[3.2.0]hept-2-ene-2-carboxylic acid] | 0.25 µg/mL (≈ 0.447 µM) | 4 µg/mL (≈ 7.15 µM) | 2 µg/mL (≈ 3.57 µM) | 1 µg/mL (≈ 1.79 µM) |  |  |  | 
C[C@@H](NC(=O)Cn1cnnn1)[C@H]1C(=O)N2C(C(=O)O)=C(S[C@@H]3CN[C@H](C(=O)N4CC5C[C@H]6C[C@@]5(CN6)C4)C3)[C@H](C)[C@H]12 (stereo partly drawn) [Example 541, (4R,5S,6R)-6-((R)-1-(2-(1H-tetrazol-1-yl)acetamido)ethyl)-3-((3S,5S)-5-((1R,7S)-3,8-Diaza-tricyclo[5.2.1.01,5]decane-3-carbonyl)pyrrolidin-3-ylthio)-4-methyl-7-oxo-1-azabicyclo[3.2.0]hept-2-ene-2-carboxylic acid] | 0.25 µg/mL (≈ 0.427 µM) | 2 µg/mL (≈ 3.41 µM) | 1 µg/mL (≈ 1.71 µM) | 1 µg/mL (≈ 1.71 µM) |  |  |  | 

Now from value to compound:

MIC [1, 5] | MIC [2, 6] | MIC [3, 7] | MIC [4, 8] | MIC ([1]; ESBL −ve E. coli ATCC25922) | MIC [2] | MIC ([3]; KPC-2 K. pneumoniae ATCC BAA-1705) | MIC ([4]; Meropenem susceptible P. aeruginosa ATCC27853) | Structure (SMILES)
0.5 µg/mL (≈ 0.737 µM) | 16 µg/mL (≈ 23.6 µM) | 16 µg/mL (≈ 23.6 µM) | 32 µg/mL (≈ 47.1 µM) |  |  |  |  | C[C@@H](NC(=O)/C(=N\OC(C)(C)C(=O)O)c1csc(N)n1)[C@H]1C(=O)N2C(C(=O)O)=C(S[C@@H]3CN[C@H](C(=O)N4CC[C@@H](N)C4)C3)[C@H](C)[C@H]12 [Example 514, (4R,5S,6R)-3-((3S,5S)-5-((R)-3-aminopyrrolidine-1-carbonyl)pyrrolidin-3-ylthio)-6-((R)-1-((Z)-2-(2-aminothiazol-4-yl)-2-(2-carboxypropan-2-yloxyimino)acetamido)ethyl)-4-methyl-7-oxo-1-azabicyclo[3.2.0]hept-2-ene-2-carboxylic acid]
0.25 µg/mL (≈ 0.444 µM) | 4 µg/mL (≈ 7.1 µM) | 2 µg/mL (≈ 3.55 µM) | 1 µg/mL (≈ 1.77 µM) |  |  |  |  | C[C@@H](NC(=O)Cn1cnnn1)[C@H]1C(=O)N2C(C(=O)O)=C(S[C@@H]3CN[C@H](C(=O)N4CC[C@@H](N)[C@H]4CO)C3)[C@H](C)[C@H]12 [Example 522, (4R,5S,6R)-6-((R)-1-(2-(1H-tetrazol-1-yl)acetamido)ethyl)-3-((3S,5S)-5-((2S,3R)-3-amino-2-(hydroxymethyl)pyrrolidine-1-carbonyl)pyrrolidin-3-ylthio)-4-methyl-7-oxo-1-azabicyclo[3.2.0]hept-2-ene-2-carboxylic acid]
 |  |  |  | 0.125 µg/mL (≈ 0.222 µM) | 2 µg/mL (≈ 3.55 µM) | 1 µg/mL (≈ 1.77 µM) | 1 µg/mL (≈ 1.77 µM) | C[C@@H](NC(=O)Cn1cnnn1)[C@H]1C(=O)N2C(C(=O)O)=C(S[C@@H]3CN[C@H](C(=O)N4CC[C@@H](N)[C@H]4CO)C3)[C@H](C)[C@H]12 [Example 523, (4R,5S,6R)-6-((R)-1-(2-(1H-tetrazol-1-yl)acetamido)ethyl)-3-((3S,5S)-5-((2S,3R)-3-amino-2-(hydroxymethyl)pyrrolidine-1-carbonyl)pyrrolidin-3-ylthio)-4-methyl-7-oxo-1-azabicyclo[3.2.0]hept-2-ene-2-carboxylic acid]
0.25 µg/mL (≈ 0.424 µM) | 4 µg/mL (≈ 6.78 µM) | 2 µg/mL (≈ 3.39 µM) | 0.5 µg/mL (≈ 0.848 µM) |  |  |  |  | C[C@@H](NC(=O)Cn1cnnn1)[C@H]1C(=O)N2C(C(=O)O)=C(S[C@@H]3CN[C@H](C(=O)N4C[C@@H]5CNC[C@]5(CO)C4)C3)[C@H](C)[C@H]12 [Example 525, (4R,5S,6R)-6-((R)-1-(2-(1H-tetrazol-1-yl)acetamido)ethyl)-3-((3S,5S)-5-((3aS,6aS)-3a-(hydroxymethyl)octahydropyrrolo[3,4-c]pyrrole-2-carbonyl)pyrrolidin-3-ylthio)-4-methyl-7-oxo-1-azabicyclo[3.2.0]hept-2-ene-2-carboxylic acid]
0.25 µg/mL (≈ 0.414 µM) | 4 µg/mL (≈ 6.63 µM) | 2 µg/mL (≈ 3.31 µM) | 1 µg/mL (≈ 1.66 µM) |  |  |  |  | C[C@@H](NC(=O)Cn1cnnn1)[C@H]1C(=O)N2C(C(=O)O)=C(S[C@@H]3CN[C@H](C(=O)N4C[C@H]5C[C@H](N)C[C@@]5(CO)C4)C3)[C@H](C)[C@H]12 [Example 526, (4R,5S,6R)-6-((R)-1-(2-(1H-tetrazol-1-yl)acetamido)ethyl)-3-((3S,5S)-5-((3aS,5S,6aS)-5-amino-3a-(hydroxymethyl)octahydrocyclopenta[c]pyrrole-2-carbonyl)pyrrolidin-3-ylthio)-4-methyl-7-oxo-1-azabicyclo[3.2.0]hept-2-ene-2-carboxylic acid]
0.25 µg/mL (≈ 0.414 µM) | 4 µg/mL (≈ 6.63 µM) | 2 µg/mL (≈ 3.31 µM) | 1 µg/mL (≈ 1.66 µM) |  |  |  |  | C[C@@H](NC(=O)Cn1cnnn1)[C@H]1C(=O)N2C(C(=O)O)=C(S[C@@H]3CN[C@H](C(=O)N4C[C@@H]5C[C@@H](N)C[C@]5(CO)C4)C3)[C@H](C)[C@H]12 [Example 529, (4R,5S,6R)-6-((R)-1-(2-(1H-tetrazol-1-yl)acetamido)ethyl)-3-((3S,5S)-5-((3aR,5R,6aR)-5-amino-3a-(hydroxymethyl)octahydrocyclopenta[c]pyrrole-2-carbonyl)pyrrolidin-3-ylthio)-4-methyl-7-oxo-1-azabicyclo[3.2.0]hept-2-ene-2-carboxylic acid]
0.25 µg/mL (≈ 0.415 µM) | 4 µg/mL (≈ 6.64 µM) | 2 µg/mL (≈ 3.32 µM) | 1 µg/mL (≈ 1.66 µM) |  |  |  |  | C[C@@H](NC(=O)Cn1cnnn1)[C@H]1C(=O)N2C(C(=O)O)=C(S[C@@H]3CN[C@H](C(=O)N4C[C@H]5C[C@H](N)C[C@@]5(CN)C4)C3)[C@H](C)[C@H]12 [Example 538, (4R,5S,6R)-6-((R)-1-(2-(1H-tetrazol-1-yl)acetamido)ethyl)-3-((3S,5S)-5-((3aR,5S,6aS)-5-amino-3a-(aminomethyl)octahydro-cyclopenta[c]pyrrole-2-carbonyl)pyrrolidin-3-ylthio)-4-methyl-7-oxo-1-azabicyclo[3.2.0]hept-2-ene-2-carboxylic acid]
0.5 µg/mL (≈ 0.872 µM) | 2 µg/mL (≈ 3.49 µM) | 1 µg/mL (≈ 1.74 µM) | 2 µg/mL (≈ 3.49 µM) |  |  |  |  | C[C@@H](NC(=O)Cn1cnnn1)[C@H]1C(=O)N2C(C(=O)O)=C(S[C@@H]3CN[C@H](C(=O)N4CC5CC(N)CC5C4)C3)[C@H](C)[C@H]12 (stereo partly drawn) [Example 543, (4R,5S,6R)-6-((R)-1-(2-(1H-tetrazol-1-yl)acetamido)ethyl)-3-((3S,5S)-5-(5-aminooctahydrocyclopenta[c]pyrrole-2-carbonyl)pyrrolidin-3-ylthio)-4-methyl-7-oxo-1-azabicyclo[3.2.0]hept-2-ene-2-carboxylic acid]
